# “Also recorded” adds a separate entry of the source.
# Key:
# [1] = test system: Fgfr3^Asn534Lys/+ mice; assay: Novel object location (NOL) in HCH mouse model; format: in vivo; settings: 4 months old male Fgfr3^Asn534Lys/+ mice, daily subcutaneous 2 mg/kg for six days, p= 0.9538 vs control littermates, FIG. 3A
# Description: FIG. 3: Learning impairment is reverse by FGFR3 tyrosine kinase inhibitor daily subcutaneous injection of BGJ398. A. Novel object location (NOL) was performed in 4 months old male animals. Discrimination index was measured 24 h after training phase to assess memory performance of Fgfr3Asn534Lys/+ and their control littermates. B. Novel object recognition (NOR) was performed in 4 months old male animals. Discrimination index was measured 24 h after training phase to assess memory performance of Fgfr3Asn534Lys/+ + BGJ398, Fgfr3Asn534Lys/+ and their control littermates. NOR and NOL were performed on two independent groups of Fgfr3Asn534Lys/+ (n=12) Fgfr3Asn534Lys/+ + BGJ398 (n=14) and their controls (n=14).
# (§1) BGJ398 was purchased from LC Laboratories, Woburn, MA, USA. […]
# For the novel object location task, all procedures were identical to the novel object recognition task except that during the testing phase, rather than presenting a novel object, mice encountered both familiar objects, with one object located in a different place in the arena. The time and frequency of exploration of the novel/relocated object is measured as an index of memory. Behavior was scored on videos by two observers blind to treatment and the total exploration time of the objects was quantified in the testing phases.
# [2] = biological target: FGFR3 (Homo sapiens, UniProt P22607); settings: reason given for selecting the inhibitor; cited from earlier work
# Sequence of FGFR3 (Homo sapiens, UniProt P22607) (P22607 23-806, species assumed): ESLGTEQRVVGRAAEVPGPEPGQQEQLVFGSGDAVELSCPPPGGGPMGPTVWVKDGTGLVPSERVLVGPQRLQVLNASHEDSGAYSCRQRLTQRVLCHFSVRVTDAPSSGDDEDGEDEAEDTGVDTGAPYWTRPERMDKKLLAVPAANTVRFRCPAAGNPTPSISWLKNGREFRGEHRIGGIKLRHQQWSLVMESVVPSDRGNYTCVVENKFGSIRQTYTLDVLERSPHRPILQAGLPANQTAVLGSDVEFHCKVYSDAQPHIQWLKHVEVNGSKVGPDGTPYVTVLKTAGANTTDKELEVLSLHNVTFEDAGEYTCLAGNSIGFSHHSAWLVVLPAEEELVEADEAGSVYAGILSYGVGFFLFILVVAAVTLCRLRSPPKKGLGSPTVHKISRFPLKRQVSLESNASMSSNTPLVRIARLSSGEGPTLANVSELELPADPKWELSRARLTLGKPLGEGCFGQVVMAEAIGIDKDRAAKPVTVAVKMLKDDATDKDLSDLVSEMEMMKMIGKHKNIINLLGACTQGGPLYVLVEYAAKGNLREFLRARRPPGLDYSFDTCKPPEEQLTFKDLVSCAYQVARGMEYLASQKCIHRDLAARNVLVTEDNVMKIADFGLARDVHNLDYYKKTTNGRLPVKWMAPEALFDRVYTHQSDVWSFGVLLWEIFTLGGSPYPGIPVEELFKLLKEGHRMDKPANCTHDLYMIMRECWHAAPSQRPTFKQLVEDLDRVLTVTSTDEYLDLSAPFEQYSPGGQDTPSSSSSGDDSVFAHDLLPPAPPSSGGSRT
# [3] = test system: Fgfr3^A385E/+ mice; assay: Forced swim test (FST) in CAN mouse model; format: in vivo; settings: 4-month-old male Fgfr3^A385E/+ mice, daily intra-cerebro-ventricular injections for 7 days, test 1 hour after last injection, FIG. 2D
# Description: (§2) A. Local daily intracerebroventricular injection with either BGJ398 or vehicle in 4 month-old male animals during 7 days. NOR training session occurred 1 hour after last injection B. NOR performed on groups injected with vehicle or BGJ398. Injection and NOR were performed on two independent groups with the three conditions each (Fgfr3^+/+ + vehicle, n=15; Fgfr3^A385E/+ + vehicle, n=14; Fgfr3^A385E/+ + BGJ398, n=14. C. Local daily intracerebroventricular injection with either BGJ398 or vehicle in 4 month-old male animals during 7 days. One FST testing session occurring 1 hour after last injection. Immobility duration was assessed during testing. D. FST performed on groups injected with vehicle or BGJ398. Injection and FST were performed on two independent groups with the three conditions each (Fgfr3^+/+ + vehicle, n=15; Fgfr3^A385E/+ + vehicle, n=14; Fgfr3^A385E/+ + BGJ398, n=14). *P<0.05 **P<0.01, ***P<0.001.NS Not significant by ANOVA with Tukey’s multiple comparisons post-test and Student’s unpaired t test.
# as §1
# This test is based on a similar observation than the TST. […] Mice were tested for 5 min, and the time spent immobile (behavioral despair) was quantified.
# [4] = test system: Fgfr3^A385E/+ mice; assay: Novel object recognition (NOR) in CAN mouse model; format: in vivo; settings: 4-month-old male Fgfr3^A385E/+ mice, daily intra-cerebro-ventricular injections for 7 days, compared to control littermates, FIG. 2B
# Description: as §2, with “test. […]” for “test.”
# (§3) We used a modified version of the NOR task as described in Glatigny et al., 2019. […] The testing room was lit with two 60-W light bulbs and behavior sessions were recorded with a camera above the testing arena (grey plastic box (60 × 40 × 32 cm)). […] The objects elicited equal levels of exploration as determined in pilot experiments and training phase. […]
# [5] = test system: FGFR3 related Achondroplasia mouse model; settings: subcutaneous injections, Komla-Ebri et al. 2016; cited from earlier work
# [6] = biological target: T1, FGFR3 (Mus musculus, UniProt Q61851, A385E); assay: FGFR3 overactivation in the brain of CAN mouse model; format: in vivo; settings: Fgfr3^A385E/+ mice
# T1 construct: from tissue; host or cells: brain (hippocampus) of Fgfr3^A385E/+ knock-in mice
# T1 sequence (Q61851 21-801 A385E): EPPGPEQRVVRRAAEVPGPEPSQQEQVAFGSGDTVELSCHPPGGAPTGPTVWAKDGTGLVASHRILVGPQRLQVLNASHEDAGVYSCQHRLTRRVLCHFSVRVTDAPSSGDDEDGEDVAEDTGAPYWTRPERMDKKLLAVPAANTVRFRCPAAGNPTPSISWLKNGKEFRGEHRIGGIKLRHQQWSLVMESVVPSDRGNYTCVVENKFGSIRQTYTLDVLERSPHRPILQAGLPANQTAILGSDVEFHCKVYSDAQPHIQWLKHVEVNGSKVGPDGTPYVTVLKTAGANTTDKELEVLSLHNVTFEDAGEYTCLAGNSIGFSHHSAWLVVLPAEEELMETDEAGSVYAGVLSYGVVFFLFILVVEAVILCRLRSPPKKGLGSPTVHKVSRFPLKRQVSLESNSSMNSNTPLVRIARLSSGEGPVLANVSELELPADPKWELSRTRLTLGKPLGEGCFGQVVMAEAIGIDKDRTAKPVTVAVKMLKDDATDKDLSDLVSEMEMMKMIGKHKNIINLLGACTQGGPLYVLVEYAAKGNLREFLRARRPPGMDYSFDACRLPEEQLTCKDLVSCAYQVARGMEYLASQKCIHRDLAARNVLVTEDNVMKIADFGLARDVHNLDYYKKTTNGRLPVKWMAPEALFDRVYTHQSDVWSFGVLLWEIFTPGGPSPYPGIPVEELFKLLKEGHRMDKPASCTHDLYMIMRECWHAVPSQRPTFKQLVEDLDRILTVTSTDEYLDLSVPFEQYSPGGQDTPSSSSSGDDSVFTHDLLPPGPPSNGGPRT
# [7] = test system: Fgfr3^Asn534Lys/+ mice; assay: Novel object recognition (NOR) in HCH mouse model; format: in vivo; settings: 4 months old male Fgfr3^Asn534Lys/+ mice, daily subcutaneous 2 mg/kg for six days, p= 0.8697 vs control littermates, FIG. 3B
# Description: FIG. 3: Learning impairment is reverse by FGFR3 tyrosine kinase inhibitor daily subcutaneous injection of BGJ398. A. Novel object location (NOL) was performed in 4 months old male animals. Discrimination index was measured 24 h after training phase to assess memory performance of Fgfr3Asn534Lys/+ and their control littermates. B. Novel object recognition (NOR) was performed in 4 months old male animals. Discrimination index was measured 24 h after training phase to assess memory performance of Fgfr3Asn534Lys/+ + BGJ398, Fgfr3Asn534Lys/+ and their control littermates. […]
# as §3
# The following behaviors were considered as exploration of the objects: sniffing, licking, or touching the object with the nose or with the front legs or directing the nose to the object at a distance ≤ 1 cm. Investigation was not scored if the mouse was on top of the object or completely immobile. The discrimination index was calculated as (time spent exploring the new object - time spent exploring the familiar object) / (total time spent exploring both objects). […]
structure (smiles),measurement,setting,value
"CCN1CCN(c2ccc(Nc3cc(N(C)C(=O)Nc4c(Cl)c(OC)cc(OC)c4Cl)ncn3)cc2)CC1 [BGJ398, 3-(2,6-dichloro-3,5-dimethoxyphenyl)-1-[6-[4-(4-ethylpiperazin-1-yl)anilino]pyrimidin-4-yl]-1-methylurea]","spatial memory deficit (NOL), exploration of the relocated object",[1],sufficient to restore the spatial (NOL)
same,binding specificity for FGFR3,[2],highest binding specificity for FGFR3
same,coping strategy to an inescapable stress in the FST (immobility duration),[3],reestablished the coping strategy to an inescapable stress
same,memory deficits in the NOR paradigm (discrimination index),[4],reversed the memory deficits
same,FGFR3 over-activation,[5],abolished the FGFR3 over-activation
same,chondrodysplasia phenotype / skeletal anomalies,[5],rescued the chondrodysplasia phenotype; also recorded: efficacy of BGJ398 in skeletal anomalies
same,FGFR3 overactivation in the brain,[6],inhibited the FGFR3 overactivation in the brain
same,"episodic memory deficit (NOR), exploration of the novel object",[7],to the same levels than control littermates
